Measured values from patent publication US11274165B2, “Pentosan polysulfate, pharmaceutical composition, and anticoagulant” (OJI HOLDINGS CORPORATION, priority 2017, dated 2022).

How the values were obtained:
[1] = target: T1, factor IIa (Homo sapiens, UniProt P00734); experiment: Anti-IIa activity measured using Biophen heparin anti-IIa (Hyphen Biomed); assay type: biochemical
T1 construct: purchased Hyphen Biomed
Experimental: Moreover, the factor IIa inhibitory activity (anti-IIa activity) can be measured using Biophen heparin anti-IIa (manufactured by Hyphen Biomed).
Using Biophen heparin anti-IIa (manufactured by Hyphen Biomed), the anti-IIa activity of pentosan polysulfate sodium was measured.
(§1) The content of acetyl groups, the content of sulfur, the anti-Xa activity, and the anti-IIa activity were measured in the same manners as those of Examples 1 to 5.

[2] = tested on: factor Xa; experiment: Anti-Xa activity measured using Test Team Heparin S (Sekisui Medical); assay type: biochemical; settings: for Anti-Xa/anti-IIa activity ratio: ratio of anti-Xa activity to anti-IIa activity
Experimental: Herein, the factor Xa inhibitory activity (anti-Xa activity) can be measured using Test Team (registered trademark) Heparin S (manufactured by Sekisui Medical Co., Ltd.).
Using Test Team (registered trademark) Heparin S (manufactured by Sekisui Medical Co., Ltd.), the anti-Xa activity of pentosan polysulfate sodium was measured.
as §1

[3] = Table 1, influence of content of acetyl groups
[4] = Table 3, influence of molecular weight

Substance	Anti-IIa activity (IU/mg) [1, 3] [IU/mg]	Anti-Xa activity (IU/mg) [2, 3] [IU/mg]	Anti-Xa/anti-IIa activity ratio ([2]; Table 1)	Anti-IIa activity (IU/mg) [1, 4] [IU/mg]	Anti-Xa activity (IU/mg) [2, 4] [IU/mg]	Anti-Xa/anti-IIa activity ratio ([2]; Table 3)
pentosan polysulfate sodium [Ex. 5]	0.0976	0.2297	2.352			
pentosan polysulfate sodium [Ex. 4]	0.0934	0.2419	2.591			
pentosan polysulfate sodium [Ex. 3]	0.0676	0.2439	3.607			
pentosan polysulfate sodium [Ex. 2]	0.1845	0.2588	1.403			
pentosan polysulfate sodium [Comp. Ex. 2]				15.52	1.69	0.11
pentosan polysulfate sodium [Ex. 7]				0.12	0.15	1.25
pentosan polysulfate sodium [Comp. Ex. 3, reference compound]				62.12	16.61	0.15
pentosan polysulfate sodium [Ex. 6]				0.15	0.67	4.29
pentosan polysulfate sodium [Comp. Ex. 4]				6.80	0.73	0.11
pentosan polysulfate sodium [Comp. Ex. 1, reference compound]	0.0221	0.0840	3.801			
pentosan polysulfate sodium [Ex. 1]	0.1405	0.2047	1.457			
pentosan polysulfate sodium [Ex. 8]				0.43	0.22	0.51
